# Assay results from PubChem BioAssay AID1963968 (Molecular Pharmacology Branch, DTP, NCI, 2024).
# “And” between values parts separate entries of the source, which are not always exact repeats. Equal values may be shown once.
# Tested on: 945468-187-T-J3-PDC spheroids with HUVEC/MSC, viability
# Assay: Anticancer human tumor 945468-187-T-J3-PDC patient-derived rectal carcinoma cell line growth inhibition [PI3K]
# Details: for IC50: curve of first compound; for viability, T/C: stronger effect = lower value
# In short: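 Tumor cells grown as multi-cell spheroids with HUVEC endothelial cells and MSC fibroblast-like stroma were treated with targeted agents combined with inavolisib, alpelisib, duvelisib or copanlisib. Doses fell in half-log steps from near clinical Cmax, else from 10 microM. Viability was measured.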
# [1] = second compound 0.0316 µM, first compound 0.0316 µM
# [2] = second compound 0.0316 µM, first compound 0.1 µM
# [3] = second compound 0.0316 µM, first compound 0.316 µM
# [4] = second compound 0.0316 µM, first compound 1 µM
# [5] = second compound 0.0316 µM, first compound 3.16 µM
# [6] = second compound 0.0316 µM, first compound 10 µM
# [7] = second compound 0.1 µM, first compound 0.0316 µM
# [8] = second compound 0.1 µM, first compound 0.1 µM
# [9] = second compound 0.1 µM, first compound 0.316 µM
# [10] = second compound 0.1 µM, first compound 1 µM
# [11] = second compound 0.1 µM, first compound 3.16 µM
# [12] = second compound 0.1 µM, first compound 10 µM
# [13] = second compound 0.316 µM, first compound 0.0316 µM
# [14] = second compound 0.316 µM, first compound 0.1 µM
# [15] = second compound 0.316 µM, first compound 0.316 µM
# [16] = second compound 0.316 µM, first compound 1 µM
# [17] = second compound 0.316 µM, first compound 3.16 µM
# [18] = second compound 0.316 µM, first compound 10 µM
# [19] = second compound 1 µM, first compound 0.0316 µM
# [20] = second compound 1 µM, first compound 0.1 µM
# [21] = second compound 1 µM, first compound 0.316 µM
# [22] = second compound 1 µM, first compound 1 µM
# [23] = second compound 1 µM, first compound 3.16 µM
# [24] = second compound 1 µM, first compound 10 µM
# [25] = second compound 0.00316 µM, first compound 0.0316 µM
# [26] = second compound 0.00316 µM, first compound 0.1 µM
# [27] = second compound 0.00316 µM, first compound 0.316 µM
# [28] = second compound 0.00316 µM, first compound 1 µM
# [29] = second compound 0.00316 µM, first compound 3.16 µM
# [30] = second compound 0.00316 µM, first compound 10 µM
# [31] = second compound 0.01 µM, first compound 0.0316 µM
# [32] = second compound 0.01 µM, first compound 0.1 µM
# [33] = second compound 0.01 µM, first compound 0.316 µM
# [34] = second compound 0.01 µM, first compound 1 µM
# [35] = second compound 0.01 µM, first compound 3.16 µM
# [36] = second compound 0.01 µM, first compound 10 µM
# 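Further: spheroids exposed to agents for 7 days before viability read.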
# 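Wherever viability, T/C is given: 100% = DMSO vehicle control viability.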
smiles,measurement,setting,value
Cn1nccc1Nc1nccc(-c2ccn(C(CO)c3ccc(Cl)c(F)c3)c(=O)c2)n1 (stereo not drawn) + CC(Nc1ncnc2nc[nH]c12)c1cc2cccc(Cl)c2c(=O)n1-c1ccccc1,IC50,second compound 0.0316 µM,> 10000 nM
same,IC50,second compound 0.1 µM,> 10000 nM
same,IC50,second compound 0.316 µM,> 10000 nM
same,IC50,second compound 1 µM,> 10000 nM
same,IC50,second compound 3.16 µM,> 10000 nM
same,IC50,second compound 10 µM,> 10000 nM
same,"viability, T/C",[1],126%
same,"viability, T/C",[2],108%
same,"viability, T/C",[3],117%
same,"viability, T/C",[4],107%
same,"viability, T/C",[5],113%
same,"viability, T/C",[6],132%
same,"viability, T/C",[7],94.3%
same,"viability, T/C",[8],101%
same,"viability, T/C",[9],113%
same,"viability, T/C",[10],116%
same,"viability, T/C",[11],117%
same,"viability, T/C",[12],116%
same,"viability, T/C",[13],93.3%
same,"viability, T/C",[14],107%
same,"viability, T/C",[15],111%
same,"viability, T/C",[16],114%
same,"viability, T/C",[17],116%
same,"viability, T/C",[18],139%
same,"viability, T/C",[19],113%
same,"viability, T/C",[20],127%
same,"viability, T/C",[21],102%
same,"viability, T/C",[22],121%
same,"viability, T/C",[23],118%
same,"viability, T/C",[24],136%
same,"viability, T/C","second compound 3.16 µM, first compound 0.0316 µM",108%
same,"viability, T/C","second compound 3.16 µM, first compound 0.1 µM",109%
same,"viability, T/C","second compound 3.16 µM, first compound 0.316 µM",106%
same,"viability, T/C","second compound 3.16 µM, first compound 1 µM",120%
same,"viability, T/C","second compound 3.16 µM, first compound 3.16 µM",116%
same,"viability, T/C","second compound 3.16 µM, first compound 10 µM",122%
same,"viability, T/C","second compound 10 µM, first compound 0.0316 µM",104%
same,"viability, T/C","second compound 10 µM, first compound 0.1 µM",108%
same,"viability, T/C","second compound 10 µM, first compound 0.316 µM",111%
same,"viability, T/C","second compound 10 µM, first compound 1 µM",123%
same,"viability, T/C","second compound 10 µM, first compound 3.16 µM",108%
same,"viability, T/C","second compound 10 µM, first compound 10 µM",123%
CC1(C)CCC(CN2CCN(c3ccc(C(=O)NS(=O)(=O)c4ccc(NCC5CCOCC5)c([N+](=O)[O-])c4)c(Oc4cnc5[nH]ccc5c4)c3)CC2)=C(c2ccc(Cl)cc2)C1 + CC(Nc1ccc2c(c1)OCCn1cc(N3C(=O)OCC3C(F)F)nc1-2)C(N)=O,IC50,second compound 0.00316 µM,> 10000 nM
same,IC50,second compound 0.01 µM,> 10000 nM
same,IC50,second compound 0.0316 µM,> 10000 nM
same,IC50,second compound 0.1 µM,> 10000 nM
same,IC50,second compound 0.316 µM,> 10000 nM
same,IC50,second compound 1 µM,> 10000 nM
same,"viability, T/C",[25],96.8%
same,"viability, T/C",[26],112%
same,"viability, T/C",[27],102%
same,"viability, T/C",[28],114%
same,"viability, T/C",[29],131%
same,"viability, T/C",[30],52.9%
same,"viability, T/C",[31],97.7%
same,"viability, T/C",[32],125%
same,"viability, T/C",[33],94%
same,"viability, T/C",[34],114%
same,"viability, T/C",[35],132%
same,"viability, T/C",[36],63.2%
same,"viability, T/C",[1],121%
same,"viability, T/C",[2],101%
same,"viability, T/C",[3],112%
same,"viability, T/C",[4],121%
same,"viability, T/C",[5],125%
same,"viability, T/C",[6],63.2%
same,"viability, T/C",[7],121%
same,"viability, T/C",[8],114%
same,"viability, T/C",[9],105%
same,"viability, T/C",[10],126%
same,"viability, T/C",[11],125%
same,"viability, T/C",[12],65.5%
same,"viability, T/C",[13],107%
same,"viability, T/C",[14],103%
same,"viability, T/C",[15],102%
same,"viability, T/C",[16],113%
same,"viability, T/C",[17],120%
same,"viability, T/C",[18],73.2%
same,"viability, T/C",[19],79.2%
same,"viability, T/C",[20],68%
same,"viability, T/C",[21],80%
same,"viability, T/C",[22],79.2%
same,"viability, T/C",[23],81.1%
same,"viability, T/C",[24],53.9%
Cn1ncc(Cl)c1-c1cc(C(=O)NC(CN)Cc2cccc(F)c2)sc1Cl (stereo not drawn),"viability, T/C",compound 0.0316 µM,100% (2×) and 98.4% and 89.2%
same,"viability, T/C",compound 0.1 µM,98.1% [middle of 4 runs]
same,"viability, T/C",compound 0.316 µM,97.4% [middle of 4 runs]
same,"viability, T/C",compound 3.16 µM,59.7% [middle of 4 runs]
same,"viability, T/C",compound 10 µM,50.4% [middle of 4 runs]
Cn1cnc2c(F)c(Nc3ccc(Br)cc3Cl)c(C(=O)NOCCO)cc21 + Cc1nc(NC(=O)N2CCCC2C(N)=O)sc1-c1ccnc(C(C)(C)C(F)(F)F)c1,IC50,second compound 0.0316 µM,> 3000 nM
same,IC50,second compound 0.1 µM,> 3000 nM
same,IC50,second compound 0.316 µM,> 3000 nM
same,IC50,second compound 1 µM,1180 nM
same,IC50,second compound 3.16 µM,286 nM
same,IC50,second compound 10 µM,20.9 nM
same,"viability, T/C","second compound 0.0316 µM, first compound 0.00949 µM",111%
same,"viability, T/C","second compound 0.0316 µM, first compound 0.03 µM",124%
same,"viability, T/C","second compound 0.0316 µM, first compound 0.0949 µM",129%
same,"viability, T/C","second compound 0.0316 µM, first compound 0.3 µM",120%
same,"viability, T/C","second compound 0.0316 µM, first compound 0.949 µM",123%
same,"viability, T/C","second compound 0.0316 µM, first compound 3 µM",107%
same,"viability, T/C","second compound 0.1 µM, first compound 0.00949 µM",113%
same,"viability, T/C","second compound 0.1 µM, first compound 0.03 µM",109%
same,"viability, T/C","second compound 0.1 µM, first compound 0.0949 µM",114%
same,"viability, T/C","second compound 0.1 µM, first compound 0.3 µM",122%
same,"viability, T/C","second compound 0.1 µM, first compound 0.949 µM",114%
same,"viability, T/C","second compound 0.1 µM, first compound 3 µM",90.4%
same,"viability, T/C","second compound 0.316 µM, first compound 0.00949 µM",114%
same,"viability, T/C","second compound 0.316 µM, first compound 0.03 µM",123%
same,"viability, T/C","second compound 0.316 µM, first compound 0.0949 µM",116%
same,"viability, T/C","second compound 0.316 µM, first compound 0.3 µM",123%
same,"viability, T/C","second compound 0.316 µM, first compound 0.949 µM",94.1%
same,"viability, T/C","second compound 0.316 µM, first compound 3 µM",60.4%
same,"viability, T/C","second compound 1 µM, first compound 0.00949 µM",117%
same,"viability, T/C","second compound 1 µM, first compound 0.03 µM",125%
same,"viability, T/C","second compound 1 µM, first compound 0.0949 µM",100%
same,"viability, T/C","second compound 1 µM, first compound 0.3 µM",101%
same,"viability, T/C","second compound 1 µM, first compound 0.949 µM",51.8%
same,"viability, T/C","second compound 1 µM, first compound 3 µM",34.2%
same,"viability, T/C","second compound 3.16 µM, first compound 0.00949 µM",105%
same,"viability, T/C","second compound 3.16 µM, first compound 0.03 µM",87%
same,"viability, T/C","second compound 3.16 µM, first compound 0.0949 µM",61.6%
same,"viability, T/C","second compound 3.16 µM, first compound 0.3 µM",55.7%
same,"viability, T/C","second compound 3.16 µM, first compound 0.949 µM",30%
same,"viability, T/C","second compound 3.16 µM, first compound 3 µM",20.2%
same,"viability, T/C","second compound 10 µM, first compound 0.00949 µM",56.9%
same,"viability, T/C","second compound 10 µM, first compound 0.03 µM",46.5%
same,"viability, T/C","second compound 10 µM, first compound 0.0949 µM",34.3%
same,"viability, T/C","second compound 10 µM, first compound 0.3 µM",20.6%
same,"viability, T/C","second compound 10 µM, first compound 0.949 µM",10.7%
same,"viability, T/C","second compound 10 µM, first compound 3 µM",4.74%
Cn1ncc(Cl)c1-c1cc(C(=O)NC(CN)Cc2cccc(F)c2)sc1Cl (stereo not drawn) + COc1c(OCCCN2CCOCC2)ccc2c3n(c(=NC(=O)c4cnc(N)nc4)nc12)CCN3,IC50,second compound 0.00316 µM,1010 nM
same,IC50,second compound 0.01 µM,653 nM
same,IC50,second compound 0.0316 µM,368 nM
same,IC50,second compound 0.1 µM,< 31.6 nM
same,IC50,second compound 0.316 µM,< 31.6 nM
same,IC50,second compound 1 µM,< 31.6 nM
same,"viability, T/C",[25],88.3%
same,"viability, T/C",[26],82.3%
same,"viability, T/C",[27],77.4%
same,"viability, T/C",[28],48.8%
same,"viability, T/C",[29],32.7%
same,"viability, T/C",[30],25.2%
same,"viability, T/C",[31],83.4%
same,"viability, T/C",[32],83.7%
same,"viability, T/C",[33],67%
same,"viability, T/C",[34],36.9%
same,"viability, T/C",[35],30.9%
same,"viability, T/C",[36],14.7%
same,"viability, T/C",[1],83%
same,"viability, T/C",[2],80.3%
same,"viability, T/C",[3],51.1%
same,"viability, T/C",[4],29.1%
same,"viability, T/C",[5],29%
same,"viability, T/C",[6],12.9%
same,"viability, T/C",[7],39.4%
same,"viability, T/C",[8],34.8%
same,"viability, T/C",[9],28.4%
same,"viability, T/C",[10],24.3%
same,"viability, T/C",[11],20.5%
same,"viability, T/C",[12],7.64%
same,"viability, T/C",[13],20.5%
same,"viability, T/C",[14],19.1%
same,"viability, T/C",[15],17.4%
same,"viability, T/C",[16],19.6%
same,"viability, T/C",[17],23.4%
same,"viability, T/C",[18],3.82%
same,"viability, T/C",[19],18%
same,"viability, T/C",[20],16.8%
same,"viability, T/C",[21],16.9%
same,"viability, T/C",[22],16.1%
same,"viability, T/C",[23],16%
same,"viability, T/C",[24],1.05%
